Experimental data as given in DBAASP.
Converted amounts (≈) assume the structure as drawn. Blank lines part the entries; values can stand above or below the compound they belong to.

Columns and labels:
Experiment in all cases: ≥ marks a high value that may be exact or a test limit, other limits are often not marked, values filed in µg/mL are converted to µM
[1] = system: Bacillus subtilis ATCC 23857
[2] = system: Fusarium oxysporum
[3] = system: Xanthomonas campestris pv. citri
[4] = system: Cryptococcus neoformans ATCC 28957
[5] = system: Fusarium solani
[6] = system: Pseudomonas syringae pv. tabaci
[7] = system: Bacillus cereus ATCC 14579
[8] = system: Pectobacterium carotovorum
[9] = system: Ramulariopsis gossypii
[10] = system: Staphylococcus aureus ATCC 25923
[11] = system: Trichoderma asperellum
[12] = system: Escherichia coli ATCC 25922
[13] = system: Rhizoctonia solani
[14] = system: Fusarium oxysporum f.sp. vasinfectum
[15] = system: Candida albicans ATCC 90028
[16] = system: Staphylococcus aureus NCTC 12493
[17] = system: Staphylococcus aureus RN4220
[18] = system: Campylobacter jejuni
[19] = system: Pseudomonas aeruginosa Q12-0535
[20] = system: Listeria monocytogenes NCTC 11994
[21] = system: Salmonella typhimurium SL1344
[22] = system: Pseudomonas aeruginosa ATCC 27853
[23] = system: Klebsiella pneumoniae Q14-0095
[24] = system: Campylobacter jejuni NCTC 11351
[25] = system: Staphylococcus aureus Q14-0320
[26] = system: Escherichia coli
[27] = system: Klebsiella pneumoniae NCTC 13442
[28] = system: Pseudomonas aeruginosa Q14-0890
[29] = system: Staphylococcus aureus MRSA-15
[30] = system: Acinetobacter baumannii Q12-0809
[31] = system: Enterococcus faecalis JH-2-2
[32] = system: Pseudomonas aeruginosa PAO1
[33] = system: Escherichia coli K-12
[34] = system: Acinetobacter baumannii Q13-0717
[35] = system: Klebsiella pneumoniae Q14-0285
[36] = system: Staphylococcus aureus ATCC 29213
[37] = system: Klebsiella pneumoniae ATCC 700603
[38] = system: Pseudomonas aeruginosa Q14-0208
[39] = system: Staphylococcus aureus Q14-0325
[40] = system: Pseudomonas aeruginosa ATCC 15442
[41] = system: Listeria monocytogenes ATCC 19112
[42] = system: Staphylococcus aureus SR1550
[43] = system: Staphylococcus aureus ATCC 6538P
[44] = system: Escherichia coli K-12 594
[45] = system: Staphylococcus epidermidis ATCC 12228
[46] = system: Enterobacter cloacae ATCC 13047
[47] = system: Candida krusei ATCC 6258
[48] = system: Candida glabrata ATCC 90030
[49] = system: Enterococcus faecalis ATCC 4028

Compound: CC[C@H](C)[C@H](NC(=O)[C@H](Cc1cnc[nH]1)NC(=O)CNC(=O)[C@H](Cc1ccccc1)NC(=O)[C@@H](N)Cc1ccccc1)C(=O)N[C@@H](Cc1c[nH]c2ccccc12)C(=O)N[C@@H](Cc1cnc[nH]1)C(=O)NCC(=O)N[C@@H](C)C(=O)N[C@@H](CCCN=C(N)N)C(=O)N[C@H](C(=O)N[C@@H](CC(C)C)C(=O)N[C@@H](Cc1ccccc1)C(=O)N[C@@H](CCCN=C(N)N)C(=O)N[C@@H](CC(=O)O)C(=O)N[C@H](C(=O)N[C@@H](Cc1ccccc1)C(=O)N[C@@H](C)C(N)=O)C(C)C)[C@@H](C)O [FFGHIWHGARTLFRDVFA]
MIC [1]: 3.33 µM (≈ 7.25 µg/mL)
MIC [2]: 16 µM (≈ 34.8 µg/mL)
MIC [3]: ≥ 32 µM
MIC [4]: ≥ 32 µM
MIC [5]: 8 µM (≈ 17.4 µg/mL)
MIC [6]: 4 µM (≈ 8.71 µg/mL)
MIC [7]: ≥ 64 µM
MIC [8]: ≥ 32 µM
MIC [9]: 16 µM (≈ 34.8 µg/mL)
MIC [10]: 8 µM (≈ 17.4 µg/mL)
MIC [11]: 8 µM (≈ 17.4 µg/mL)
MIC [12]: 8 µM (≈ 17.4 µg/mL)
MIC [13]: ≥ 32 µM
MIC [14]: 13.3 µM (≈ 29 µg/mL)
MIC [15]: ≥ 32 µM

MIC [16]: 13.9 µM (≈ 32 µg/mL)
MIC [17]: 27.7 µM (≈ 64 µg/mL)
MIC [18]: ≥ 55.4 µM
MIC [19]: ≥ 55.4 µM
MIC [20]: 27.7 µM (≈ 64 µg/mL)
MIC [21]: 13.9 µM (≈ 32 µg/mL)
MIC [22]: > 55.4 µM
MIC [23]: ≥ 55.4 µM
MIC [24]: ≥ 55.4 µM
MIC [25]: ≥ 55.4 µM
MIC [26]: > 55.4 µM
MIC [27]: ≥ 55.4 µM
MIC [28]: 13.9 µM (≈ 32 µg/mL)
MIC [29]: 27.7 µM (≈ 64 µg/mL)
MIC [30]: 13.9 µM (≈ 32 µg/mL)
MIC [31]: 27.7 µM (≈ 64 µg/mL)
MIC [32]: 13.9 µM (≈ 32 µg/mL)
MIC [33]: 27.7 µM (≈ 64 µg/mL)
MIC [34]: 27.7 µM (≈ 64 µg/mL)
MIC [35]: ≥ 55.4 µM
MIC [36]: 55.4 µM (≈ 128 µg/mL)
MIC [37]: 55.4 µM (≈ 128 µg/mL)
MIC [38]: 27.7 µM (≈ 64 µg/mL)
MIC [39]: ≥ 55.4 µM
Compound: CC(C)C[C@H](NC(=O)[C@H](CO)NC(=O)[C@H](CO)NC(=O)[C@H](CO)NC(=O)[C@H](CCCN=C(N)N)NC(=O)[C@@H](NC(=O)[C@H](CCCN=C(N)N)NC(=O)[C@H](Cc1c[nH]c2ccccc12)NC(=O)[C@H](CS)NC(=O)[C@H](CC(N)=O)NC(=O)[C@H](CCCN=C(N)N)NC(=O)[C@H](Cc1ccccc1)NC(=O)[C@H](C)NC(=O)[C@H](CCCCN)NC(=O)[C@H](Cc1c[nH]c2ccccc12)NC(=O)[C@H](CCCN=C(N)N)NC(=O)[C@H](Cc1c[nH]c2ccccc12)NC(=O)[C@H](C)N)C(C)C)C(=O)O [AWRWKAFRNCWRVRSSSL]

MIC [40]: 13 µM (≈ 26.7 µg/mL)
MIC [41]: 31.2 µM (≈ 64 µg/mL)
Compound: CC[C@H](C)[C@H](NC(=O)[C@H](CO)NC(=O)[C@@H](N)CC(C)C)C(=O)N[C@@H](CCCN=C(N)N)C(=O)N[C@@H](CCCN=C(N)N)C(=O)N[C@@H](CC(C)C)C(=O)N[C@@H](CC(C)C)C(=O)N[C@@H](C)C(=O)N[C@@H](C)C(=O)NCC(=O)N[C@H](C(=O)N[C@@H](CC(C)C)C(=O)N[C@@H](CCCCN)C(=O)N[C@@H](CCC(N)=O)C(=O)N[C@H](C(=O)N[C@@H](CCCCN)C(=O)NCC(=O)N[C@H](C(=O)NCC(=O)N[C@@H](C)C(=O)O)C(C)C)[C@@H](C)O)C(C)C [LSIRRLLAAGVLKQTKGVGA]

MIC [42]: 27.7 µM (≈ 35 µg/mL)
MIC [43]: 1.58 µM (≈ 2 µg/mL)
MIC [44]: 15.8 µM (≈ 20 µg/mL)
Compound: CC(C)C[C@H](NC(=O)[C@H](CCCN=C(N)N)NC(=O)[C@H](CC(C)C)NC(=O)[C@H](CC(C)C)NC(=O)[C@H](CC(C)C)NC(=O)[C@H](CC(C)C)NC(=O)[C@H](CCCCN)NC(=O)[C@H](CC(C)C)NC(=O)[C@@H](N)CCCN=C(N)N)C(=O)N[C@@H](CCCCN)C(N)=O [RLKLLLLRLK]

MIC [22]: 9.38 µM (≈ 17.9 µg/mL)
MIC [45]: 1.17 µM (≈ 2.23 µg/mL)
MIC [46]: 18.8 µM (≈ 35.8 µg/mL)
MIC [47]: ≥ 37.5 µM
MIC [36]: 2.34 µM (≈ 4.46 µg/mL)
MIC [48]: 18.8 µM (≈ 35.8 µg/mL)
MIC [12]: 4.69 µM (≈ 8.95 µg/mL)
MIC [49]: 1.17 µM (≈ 2.23 µg/mL)
MIC [15]: 9.38 µM (≈ 17.9 µg/mL)
Compound: CC[C@H](C)[C@H](NC(=O)[C@H](CC(C)C)NC(=O)CNC(=O)[C@H](CCCCN)NC(=O)[C@@H](NC(=O)[C@H](CC(C)C)NC(=O)[C@H](CCCCN)NC(=O)[C@@H]1CCCN1C(=O)[C@@H](NC(=O)[C@H](CC(C)C)NC(=O)[C@H](CO)NC(=O)[C@H](Cc1ccccc1)NC(=O)[C@@H](N)Cc1ccccc1)[C@@H](C)CC)C(C)C)C(=O)N[C@@H](CO)C(=O)N[C@@H](C)C(=O)N[C@@H](Cc1ccccc1)C(=O)N[C@@H](CCCCN)C(N)=O [FFSLIPKLVKGLISAFK]
